Measurements from PubChem BioAssay (NCI).
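Cells were grown in 96-well plates and exposed to each compound for 48 hours at five concentrations; endpoints were interpolated linearly between bracketing concentrations, or set to the highest concentration if not reached. At the TGI there is no net growth.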

Experiments:
Assay in all cases: growth of human tumour cells (NCI), 48 h
MCF7 breast = system: MCF7 breast
NCI/ADR-RES ovarian = system: NCI/ADR-RES ovarian
DU-145 prostate = system: DU-145 prostate
HT29 colon = system: HT29 colon
U251 CNS = system: U251 CNS
NCI-H460 lung = system: NCI-H460 lung
HCT-15 colon = system: HCT-15 colon
HCC-2998 colon = system: HCC-2998 colon
SF-295 CNS = system: SF-295 CNS
SF-539 CNS = system: SF-539 CNS
EKVX NSCLC = system: EKVX NSCLC
OVCAR-5 ovarian = system: OVCAR-5 ovarian
HOP-62 NSCLC = system: HOP-62 NSCLC
NCI-H23 lung = system: NCI-H23 lung
MALME-3M melanoma = system: MALME-3M melanoma
NCI-H226 lung = system: NCI-H226 lung
M14 melanoma = system: M14 melanoma
MOLT-4 leukemia = system: MOLT-4 leukemia
A549 NSCLC = system: A549 NSCLC
NCI-H522 lung = system: NCI-H522 lung
UACC-62 melanoma = system: UACC-62 melanoma
OVCAR-4 ovarian = system: OVCAR-4 ovarian
SK-MEL-28 melanoma = system: SK-MEL-28 melanoma
LOX IMVI melanoma = system: LOX IMVI melanoma
COLO 205 colon = system: COLO 205 colon
SF-268 CNS = system: SF-268 CNS
TK-10 renal = system: TK-10 renal
KM12 colon = system: KM12 colon
MDA-MB-231 breast = system: MDA-MB-231 breast
MDA-N = system: MDA-N
SW-620 colon = system: SW-620 colon
CCRF-CEM leukemia = system: CCRF-CEM leukemia
RXF 393 renal = system: RXF 393 renal
UACC-257 melanoma = system: UACC-257 melanoma
IGROV1 ovarian = system: IGROV1 ovarian
MDA-MB-435 = system: MDA-MB-435
OVCAR-3 ovarian = system: OVCAR-3 ovarian
CAKI-1 renal = system: CAKI-1 renal
K-562 leukemia = system: K-562 leukemia
HCT-116 colon = system: HCT-116 colon
HS 578T breast = system: HS 578T breast
ACHN renal = system: ACHN renal
T-47D breast = system: T-47D breast
SNB-75 CNS = system: SNB-75 CNS
SR leukemia = system: SR leukemia
OVCAR-8 ovarian = system: OVCAR-8 ovarian
SK-OV-3 ovarian = system: SK-OV-3 ovarian
HL-60(TB) leukemia = system: HL-60(TB) leukemia
SNB-19 CNS = system: SNB-19 CNS
A498 renal = system: A498 renal
786-0 renal = system: 786-0 renal
SN12C renal = system: SN12C renal
HOP-92 NSCLC = system: HOP-92 NSCLC
PC-3 prostate = system: PC-3 prostate
SK-MEL-2 melanoma = system: SK-MEL-2 melanoma
RPMI-8226 leukemia = system: RPMI-8226 leukemia

O=C(Sc1c(-c2ccccc2)c(=O)n(-c2ccccc2)c(=S)n1-c1ccccc1)c1ccc(Cl)cc1
TGI (MCF7 breast): > 100 µM | TGI (NCI/ADR-RES ovarian): > 100 µM | TGI (DU-145 prostate): > 100 µM | TGI (HT29 colon): > 100 µM | TGI (U251 CNS): > 100 µM | TGI (NCI-H460 lung): > 100 µM | TGI (HCT-15 colon): > 100 µM | TGI (HCC-2998 colon): > 100 µM | TGI (SF-295 CNS): > 100 µM | TGI (SF-539 CNS): > 100 µM | TGI (EKVX NSCLC): > 100 µM | TGI (OVCAR-5 ovarian): > 100 µM | TGI (HOP-62 NSCLC): > 100 µM | TGI (NCI-H23 lung): > 100 µM | TGI (MALME-3M melanoma): > 100 µM | TGI (NCI-H226 lung): > 100 µM | TGI (M14 melanoma): > 100 µM | TGI (MOLT-4 leukemia): > 100 µM | TGI (A549 NSCLC): > 100 µM | TGI (NCI-H522 lung): > 100 µM | TGI (UACC-62 melanoma): > 100 µM | TGI (OVCAR-4 ovarian): > 100 µM | TGI (SK-MEL-28 melanoma): > 100 µM | TGI (LOX IMVI melanoma): > 100 µM | TGI (COLO 205 colon): > 100 µM | TGI (SF-268 CNS): > 100 µM | TGI (TK-10 renal): > 100 µM | TGI (KM12 colon): > 100 µM | TGI (MDA-MB-231 breast): > 100 µM | TGI (MDA-N): > 100 µM | TGI (SW-620 colon): > 100 µM | TGI (CCRF-CEM leukemia): > 100 µM | TGI (RXF 393 renal): > 100 µM | TGI (UACC-257 melanoma): > 100 µM | TGI (IGROV1 ovarian): > 100 µM | TGI (MDA-MB-435): > 100 µM | TGI (OVCAR-3 ovarian): > 100 µM | TGI (CAKI-1 renal): > 100 µM | TGI (K-562 leukemia): > 100 µM | TGI (HCT-116 colon): > 100 µM | TGI (HS 578T breast): > 100 µM | TGI (ACHN renal): > 100 µM | TGI (T-47D breast): > 100 µM | TGI (SNB-75 CNS): > 100 µM | TGI (SR leukemia): > 100 µM | TGI (OVCAR-8 ovarian): > 100 µM | TGI (SK-OV-3 ovarian): > 100 µM | TGI (HL-60(TB) leukemia): > 100 µM | TGI (SNB-19 CNS): > 100 µM | TGI (A498 renal): > 100 µM | TGI (786-0 renal): > 100 µM | TGI (SN12C renal): > 100 µM | TGI (HOP-92 NSCLC): > 100 µM

N=c1c2c(ncn1N)Oc1c(c(-c3ccccc3)nn1-c1ccccc1)C2c1ccc(Cl)cc1 (stereo unspecified)
TGI (PC-3 prostate): 3.01 µM | TGI (HT29 colon): 2.77 µM | TGI (NCI-H460 lung): 2.99 µM | TGI (HCT-15 colon): 3.65 µM | TGI (HCC-2998 colon): 3.08 µM | TGI (EKVX NSCLC): 3.39 µM | TGI (OVCAR-5 ovarian): 2.93 µM | TGI (HOP-62 NSCLC): 3.02 µM | TGI (NCI-H23 lung): 3.31 µM | TGI (MALME-3M melanoma): 3.1 µM | TGI (M14 melanoma): 3.18 µM | TGI (MOLT-4 leukemia): > 100 µM | TGI (UACC-62 melanoma): 3.16 µM | TGI (OVCAR-4 ovarian): 3.24 µM | TGI (TK-10 renal): 3.47 µM | TGI (KM12 colon): 2.99 µM | TGI (MDA-MB-231 breast): 5.21 µM | TGI (MDA-N): 3.86 µM | TGI (SW-620 colon): 4.5 µM | TGI (CCRF-CEM leukemia): > 100 µM | TGI (UACC-257 melanoma): 3.71 µM | TGI (IGROV1 ovarian): 2.8 µM | TGI (SK-MEL-2 melanoma): 3.1 µM | TGI (MDA-MB-435): 3.46 µM | TGI (OVCAR-3 ovarian): 3.11 µM | TGI (CAKI-1 renal): 3.71 µM | TGI (K-562 leukemia): > 100 µM | TGI (HCT-116 colon): 3.03 µM | TGI (ACHN renal): 3.46 µM | TGI (T-47D breast): 4.99 µM | TGI (RPMI-8226 leukemia): > 100 µM | TGI (SNB-75 CNS): 2.83 µM | TGI (SR leukemia): > 100 µM | TGI (SK-OV-3 ovarian): 3.37 µM | TGI (HL-60(TB) leukemia): > 100 µM | TGI (SNB-19 CNS): 2.86 µM | TGI (A498 renal): 4.32 µM | TGI (SN12C renal): 3.89 µM
